Tested on: Homo sapiens
Assay: Drug level in human serum at 10 mg/kg
Type: ADME, organism-based
Design: dose 10 mg/kg
Conditions: in vivo

## NNC(=O)c1ccncc1 [ISONIAZID]
  Drug uptake: 0.4 µg/mL

Reference: ChEMBL document CHEMBL1275575, “Susceptibility of Mycobacterium bovis BCG vaccine strains to antituberculous antibiotics” (Antimicrob Agents Chemother, 2009)
